From publication doi:10.1101/2024.09.05.611349v1 (biorxiv, 2024)
Converted amounts (≈) assume the structure as drawn. Like-named read-outs stand apart in the source and are kept apart here. Blank lines part the entries; values can stand above or below the compound they belong to.

How the values were obtained:
Test in all cases: microbe, parasite or virus in culture
Set-up in all cases: species or system gram-positive clinical isolates
[1] = system: Staphylococcus aureus MSSA 15-8; conditions: Staphylococcus aureus, MSSA
[2] = system: Staphylococcus epidermidis MRSE 15-1; conditions: Staphylococcus epidermidis, MRSE
[3] = system: Staphylococcus aureus MRSA 15-1; conditions: Staphylococcus aureus, MRSA
[4] = system: Staphylococcus aureus MRSA 17-6; conditions: Staphylococcus aureus, MRSA
[5] = system: Enterococcus faecium EFM 15-1; conditions: Enterococcus faecium
[6] = system: Staphylococcus aureus MRSA 17-10; conditions: Staphylococcus aureus, MRSA
[7] = system: Enterococcus faecalis EFA 15-55; conditions: Enterococcus faecalis
[8] = system: Staphylococcus aureus MSSA 15-2; conditions: Staphylococcus aureus, MSSA
[9] = system: Staphylococcus aureus MRSA 16-2; conditions: Staphylococcus aureus, MRSA
[10] = system: Staphylococcus epidermidis MRSE 15-2; conditions: Staphylococcus epidermidis, MRSE
[11] = system: Enterococcus faecalis EFA 15-2; conditions: Enterococcus faecalis
[12] = system: Staphylococcus aureus MRSA 17-3; conditions: Staphylococcus aureus, MRSA
[13] = system: Staphylococcus aureus MRSA 17-5; conditions: Staphylococcus aureus, MRSA
[14] = system: Enterococcus faecium EFM 15-52; conditions: Enterococcus faecium
[15] = system: Staphylococcus aureus MRSA 17-7; conditions: Staphylococcus aureus, MRSA
[16] = system: Staphylococcus aureus MSSA 15-1; conditions: Staphylococcus aureus, MSSA
[17] = system: Enterococcus faecium EFM 15-2; conditions: Enterococcus faecium
[18] = system: Enterococcus faecium EFM 15-9; conditions: Enterococcus faecium
[19] = system: Staphylococcus aureus MRSA 16-1; conditions: Staphylococcus aureus, MRSA
[20] = system: Staphylococcus epidermidis MRSE 15-76; conditions: Staphylococcus epidermidis, MRSE
[21] = system: Staphylococcus aureus MSSA 15-6; conditions: Staphylococcus aureus, MSSA
[22] = system: Staphylococcus aureus MRSA 15-3; conditions: Staphylococcus aureus, MRSA
[23] = system: Enterococcus faecium EFM 15-8; conditions: Enterococcus faecium
[24] = system: Staphylococcus aureus MRSA 15-2; conditions: Staphylococcus aureus, MRSA
[25] = system: Staphylococcus epidermidis MRSE 15-80; conditions: Staphylococcus epidermidis, MRSE
[26] = system: Enterococcus faecium EFM 15-7; conditions: Enterococcus faecium
[27] = system: Enterococcus faecalis EFA 15-60; conditions: Enterococcus faecalis
[28] = read-out: MIC(μg/ml) / vancomycin

SMILES: CCCCCOc1ccc(C(=O)NNC(=S)NC(C)=O)cc1 [1b, N-(2-(4-(n-pentoxy)benzoyl)hydrazine-1-carbonothioyl)acetamide]
MIC ([1]; read-out: MIC(μg/ml) / 1b): 2 µg/mL (≈ 6.18 µM)
MIC ([2]; read-out: MIC(μg/ml) / 1b): 4 µg/mL (≈ 12.4 µM)
MIC ([3]; read-out: MIC(μg/ml) / 1b): 4 µg/mL (≈ 12.4 µM)
MIC ([4]; read-out: MIC(μg/ml) / 1b): 2 µg/mL (≈ 6.18 µM)
MIC ([5]; EFM151, read-out: MIC(μg/ml) / 1b): 8 µg/mL (≈ 24.7 µM)
MIC ([6]; read-out: MIC(μg/ml) / 1b): 2 µg/mL (≈ 6.18 µM)
MIC ([7]; EFA1555, read-out: MIC(μg/ml) / 1b): 8 µg/mL (≈ 24.7 µM)
MIC ([8]; read-out: MIC(μg/ml) / 1b): 2 µg/mL (≈ 6.18 µM)
MIC ([9]; read-out: MIC(μg/ml) / 1b): 2 µg/mL (≈ 6.18 µM)
MIC ([10]; read-out: MIC(μg/ml) / 1b): 4 µg/mL (≈ 12.4 µM)
MIC ([11]; EFA152, read-out: MIC(μg/ml) / 1b): 8 µg/mL (≈ 24.7 µM)
MIC ([12]; read-out: MIC(μg/ml) / 1b): 2 µg/mL (≈ 6.18 µM)
MIC ([13]; read-out: MIC(μg/ml) / 1b): 2 µg/mL (≈ 6.18 µM)
MIC ([14]; EFM1552, read-out: MIC(μg/ml) / 1b): 8 µg/mL (≈ 24.7 µM)
MIC ([15]; read-out: MIC(μg/ml) / 1b): 2 µg/mL (≈ 6.18 µM)
MIC ([16]; read-out: MIC(μg/ml) / 1b): 1 µg/mL (≈ 3.09 µM)
MIC ([17]; EFM152, read-out: MIC(μg/ml) / 1b): 4 µg/mL (≈ 12.4 µM)
MIC ([18]; EFM159, read-out: MIC(μg/ml) / 1b): 4 µg/mL (≈ 12.4 µM)
MIC ([19]; read-out: MIC(μg/ml) / 1b): 2 µg/mL (≈ 6.18 µM)
MIC ([20]; read-out: MIC(μg/ml) / 1b): 2 µg/mL (≈ 6.18 µM)
MIC ([21]; read-out: MIC(μg/ml) / 1b): 2 µg/mL (≈ 6.18 µM)
MIC ([22]; read-out: MIC(μg/ml) / 1b): 4 µg/mL (≈ 12.4 µM)
MIC ([23]; EFM158, read-out: MIC(μg/ml) / 1b): 2 µg/mL (≈ 6.18 µM)
MIC ([24]; read-out: MIC(μg/ml) / 1b): 4 µg/mL (≈ 12.4 µM)
MIC ([25]; read-out: MIC(μg/ml) / 1b): 1 µg/mL (≈ 3.09 µM)
MIC ([26]; EFM157, read-out: MIC(μg/ml) / 1b): 2 µg/mL (≈ 6.18 µM)
MIC ([27]; EFA1560, read-out: MIC(μg/ml) / 1b): 8 µg/mL (≈ 24.7 µM)

MIC [1, 28]: 0.5 µg/mL (≈ 0.345 µM)
MIC [2, 28]: 2 µg/mL (≈ 1.38 µM)
MIC [3, 28]: 2 µg/mL (≈ 1.38 µM)
MIC [4, 28]: 0.5 µg/mL (≈ 0.345 µM)
MIC ([5]; EFM151, read-out: MIC(μg/ml) / vancomycin): 1 µg/mL (≈ 0.69 µM)
MIC [6, 28]: 1 µg/mL (≈ 0.69 µM)
MIC ([7]; EFA1555, read-out: MIC(μg/ml) / vancomycin): 0.5 µg/mL (≈ 0.345 µM)
MIC [8, 28]: 1 µg/mL (≈ 0.69 µM)
MIC [9, 28]: 1 µg/mL (≈ 0.69 µM)
MIC [10, 28]: 2 µg/mL (≈ 1.38 µM)
MIC ([11]; EFA152, read-out: MIC(μg/ml) / vancomycin): 0.5 µg/mL (≈ 0.345 µM)
MIC [12, 28]: 1 µg/mL (≈ 0.69 µM)
MIC [13, 28]: 0.5 µg/mL (≈ 0.345 µM)
MIC ([14]; EFM1552, read-out: MIC(μg/ml) / vancomycin): 2 µg/mL (≈ 1.38 µM)
MIC [15, 28]: 0.25 µg/mL (≈ 0.173 µM)
MIC [16, 28]: 1 µg/mL (≈ 0.69 µM)
MIC ([17]; EFM152, read-out: MIC(μg/ml) / vancomycin): 2 µg/mL (≈ 1.38 µM)
MIC ([18]; EFM159, read-out: MIC(μg/ml) / vancomycin): 0.5 µg/mL (≈ 0.345 µM)
MIC [19, 28]: 1 µg/mL (≈ 0.69 µM)
MIC [20, 28]: 2 µg/mL (≈ 1.38 µM)
MIC [21, 28]: 0.5 µg/mL (≈ 0.345 µM)
MIC [22, 28]: 1 µg/mL (≈ 0.69 µM)
MIC ([23]; EFM158, read-out: MIC(μg/ml) / vancomycin): 0.5 µg/mL (≈ 0.345 µM)
MIC [24, 28]: 2 µg/mL (≈ 1.38 µM)
MIC [25, 28]: 2 µg/mL (≈ 1.38 µM)
MIC ([26]; EFM157, read-out: MIC(μg/ml) / vancomycin): 0.5 µg/mL (≈ 0.345 µM)
MIC ([27]; EFA1560, read-out: MIC(μg/ml) / vancomycin): 8 µg/mL (≈ 5.52 µM)
SMILES: CN[C@H](CC(C)C)C(=O)N[C@H]1C(=O)N[C@@H](CC(N)=O)C(=O)N[C@H]2C(=O)N[C@H]3C(=O)N[C@H](C(=O)N[C@H](C(=O)O)c4cc(O)cc(O)c4-c4cc3ccc4O)[C@H](O)c3ccc(c(Cl)c3)Oc3cc2cc(c3O[C@@H]2O[C@H](CO)[C@@H](O)[C@H](O)[C@H]2O[C@H]2C[C@](C)(N)[C@H](O)[C@H](C)O2)Oc2ccc(cc2Cl)[C@H]1O [vancomycin]
